#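 The compound was tested at five concentrations on cells cultured in 96-well plates, with a 48-hour exposure period. GI50 marks 50% less growth.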 Active and inactive are the calls of the source. Rule as the data show it: active = GI50 up to about 1.1 µM and inactive = higher.
# How the values were obtained:
# Test in all cases: NCI-60 cell line screen, 48 h
# SR = tested on: SR
# NCI-H23 = tested on: NCI-H23
# SW-620 = tested on: SW-620
# HOP-92 = tested on: HOP-92
# SK-OV-3 = tested on: SK-OV-3
# OVCAR-3 = tested on: OVCAR-3
# MDA-MB-435 = tested on: MDA-MB-435
# SF-539 = tested on: SF-539
# OVCAR-5 = tested on: OVCAR-5
# COLO 205 = tested on: COLO 205
# HT-29 = tested on: HT-29
# SN12C = tested on: SN12C
# NCI-H460 = tested on: NCI-H460
# DU-145 = tested on: DU-145
# BT-549 = tested on: BT-549
# HCC 2998 = tested on: HCC 2998
# UO-31 = tested on: UO-31
# EKVX = tested on: EKVX
# Hs-578T = tested on: Hs-578T
# SK-MEL-5 = tested on: SK-MEL-5
# SF-295 = tested on: SF-295
# LOX IMVI = tested on: LOX IMVI
# SNB-19 = tested on: SNB-19
# MDA-MB-231 = tested on: MDA-MB-231
# RPMI-8226 = tested on: RPMI-8226
# T47D = tested on: T47D
# HCT-116 = tested on: HCT-116
# OVCAR-8 = tested on: OVCAR-8
# U-251 = tested on: U-251
# SK-MEL-2 = tested on: SK-MEL-2
# NCI-H522 = tested on: NCI-H522
# SK-MEL-28 = tested on: SK-MEL-28
# PC-3 = tested on: PC-3
# MDA-N = tested on: MDA-N
# A498 = tested on: A498
# HOP-62 = tested on: HOP-62
# HCT-15 = tested on: HCT-15
# 786-0 = tested on: 786-0
# HL-60 = tested on: HL-60
# CAKI-1 = tested on: CAKI-1
# Malme-3M = tested on: Malme-3M
# K562 = tested on: K562
# OVCAR-4 = tested on: OVCAR-4
# NCI/ADR-RES = tested on: NCI/ADR-RES
# MOLT-4 = tested on: MOLT-4
# SF-268 = tested on: SF-268
# UACC-257 = tested on: UACC-257
# ACHN = tested on: ACHN
# KM12 = tested on: KM12
# UACC-62 = tested on: UACC-62
# RXF 393 = tested on: RXF 393
# TK-10 = tested on: TK-10
# IGROV-1 = tested on: IGROV-1
# M14 = tested on: M14
# NCI-H226 = tested on: NCI-H226
# A549 = tested on: A549
# MCF7 = tested on: MCF7
smiles,measurement,setting,value
Cc1ccc(C)c(C(=N)c2ccccc2Cc2ccccc2)c1,GI50,SR,19.2 µM (inactive)
same,GI50,NCI-H23,26.9 µM (inactive)
same,GI50,SW-620,31.2 µM (inactive)
same,GI50,HOP-92,17 µM (inactive)
same,GI50,SK-OV-3,26.8 µM (inactive)
same,GI50,OVCAR-3,13.3 µM (inactive)
same,GI50,MDA-MB-435,17.9 µM (inactive)
same,GI50,SF-539,17.9 µM (inactive)
same,GI50,OVCAR-5,25.9 µM (inactive)
same,GI50,COLO 205,26.9 µM (inactive)
same,GI50,HT-29,12.9 µM (inactive)
same,GI50,SN12C,17.3 µM (inactive)
same,GI50,NCI-H460,14.7 µM (inactive)
same,GI50,DU-145,22.9 µM (inactive)
same,GI50,BT-549,32.7 µM (inactive)
same,GI50,HCC 2998,15.9 µM (inactive)
same,GI50,UO-31,27.3 µM (inactive)
same,GI50,EKVX,19 µM (inactive)
same,GI50,Hs-578T,5.42 µM (inactive)
same,GI50,SK-MEL-5,15.5 µM (inactive)
same,GI50,SF-295,20 µM (inactive)
same,GI50,LOX IMVI,17.3 µM (inactive)
same,GI50,SNB-19,42.6 µM (inactive)
same,GI50,MDA-MB-231,22.8 µM (inactive)
same,GI50,RPMI-8226,12.3 µM (inactive)
same,GI50,T47D,21 µM (inactive)
same,GI50,HCT-116,12.6 µM (inactive)
same,GI50,OVCAR-8,31.7 µM (inactive)
same,GI50,U-251,15.5 µM (inactive)
same,GI50,SK-MEL-2,15.3 µM (inactive)
same,GI50,NCI-H522,13.2 µM (inactive)
same,GI50,SK-MEL-28,26.4 µM (inactive)
same,GI50,PC-3,26.7 µM (inactive)
same,GI50,MDA-N,23 µM (inactive)
same,GI50,A498,21.7 µM (inactive)
same,GI50,HOP-62,24.3 µM (inactive)
same,GI50,HCT-15,24.7 µM
same,GI50,786-0,17 µM (inactive)
same,GI50,HL-60,18.5 µM (inactive)
same,GI50,CAKI-1,22.6 µM (inactive)
same,GI50,Malme-3M,13 µM (inactive)
same,GI50,K562,17.9 µM (inactive)
same,GI50,OVCAR-4,19.4 µM (inactive)
same,GI50,NCI/ADR-RES,25.4 µM (inactive)
same,GI50,MOLT-4,15.1 µM (inactive)
same,GI50,SF-268,18.6 µM (inactive)
same,GI50,UACC-257,22.9 µM (inactive)
same,GI50,ACHN,18.2 µM (inactive)
same,GI50,KM12,20.2 µM (inactive)
same,GI50,UACC-62,14.2 µM (inactive)
same,GI50,RXF 393,20 µM (inactive)
same,GI50,TK-10,47.9 µM (inactive)
same,GI50,IGROV-1,25.6 µM (inactive)
same,GI50,M14,24.2 µM (inactive)
same,GI50,NCI-H226,16.4 µM (inactive)
same,GI50,A549,24.2 µM (inactive)
same,GI50,MCF7,15.7 µM (inactive)

# From ChEMBL document CHEMBL1201862, “PubChem BioAssay data set” (2004)
